# Data as given in patent US9790233B2, “Compositions and methods of modulating 15-PGDH activity” (CASE WESTERN RESERVE UNIVERSITY, priority 2012, dated 2017).
# Like-named read-outs stand apart in the source and are kept apart here.
# Experiments:
# Format in all cases: cell-based
# [1] = test system: 15-PGDH luciferase fusion construct in Vaco503 reporter cell line; experiment: 15-PGDH-luciferase fusion gene reporter induction, V503 cells
# [2] = test system: 15-PGDH luciferase fusion construct in LS174T reporter cell line; experiment: 15-PGDH-luciferase fusion gene reporter induction, LS174T cells; conditions: Homo sapiens
# [3] = test system: 15-PGDH luciferase fusion construct in V9m reporter cell line; experiment: 15-PGDH-luciferase fusion gene reporter induction, V9m cells
# [4] = read-out: V503-3H9-7 reporter activity, % ([…]), V503 reporter cells, […] compound, % induction of luciferase activity over basal level, read-out: V503-3H9-7 reporter activity, % (2.5 μM)
# [5] = read-out: V503-3H9-7 reporter activity, % ([…]), V503 reporter cells, […] compound, % induction of luciferase activity over basal level, read-out: V503-3H9-7 reporter activity, % (7.5 μM)
# [6] = read-out: Ls174T-SC1 reporter activity, % ([…]), LS174T reporter cells, […] compound, % induction of luciferase activity over basal level, read-out: Ls174T-SC1 reporter activity, % (2.5 μM)
# [7] = read-out: Ls174T-SC1 reporter activity, % ([…]), LS174T reporter cells, […] compound, % induction of luciferase activity over basal level, read-out: Ls174T-SC1 reporter activity, % (7.5 μM)
# [8] = read-out: V9M-SC3 Reporter activity ([…]) (%), V9m reporter cells, […] compound, % induction of luciferase activity over basal level, read-out: V9M-SC3 Reporter activity (2.5 μM) (%)
# [9] = read-out: V9M-SC3 Reporter activity ([…]), %, V9m reporter cells, […] compound, % induction of luciferase activity over basal level, read-out: V9M-SC3 Reporter activity (7.5 μM), %
# [10] = read-out: V503 reporter activity ([…]), […], % increased luciferase activity over basal level, read-out: V503 reporter activity (2.5 uM)
# [11] = read-out: V503 reporter activity ([…]), […], % increased luciferase activity over basal level, read-out: V503 reporter activity (7.5 uM)
# [12] = read-out: LS174T reporter activity ([…]), […], % increased luciferase activity over basal level, read-out: LS174T reporter activity (2.5 uM)
# [13] = read-out: LS174T reporter activity ([…]), […], % increased luciferase activity over basal level, read-out: LS174T reporter activity (7.5 uM)
# [14] = read-out: V9M reporter activity ([…]), […], % increased luciferase activity over basal level, 100 = doubling, read-out: V9M reporter activity (2.5 uM)
# [15] = read-out: V9M reporter activity ([…]), […], % increased luciferase activity over basal level, 100 = doubling, read-out: V9M reporter activity (7.5 uM)
SMILES,"activation at […] [1, 4] [%]","activation at […] [1, 5] [%]","activation at […] [2, 6] [%]","activation at […] [2, 7] [%]","activation at […] [3, 8] [%]","activation at […] [3, 9] [%]","activation at […] [1, 10] [%]","activation at […] [1, 11] [%]","activation at […] [2, 12] [%]","activation at […] [2, 13] [%]","activation at […] [3, 14] [%]","activation at […] [3, 15] [%]"
CCCOC(=O)CN(c1cc(OC)ccc1OC)S(=O)(=O)c1ccccc1 [SW202986],60.2,175,0.21,33.8,-22.9,-9.6,–,–,–,–,–,–
COc1ccc(OC)c(N(CC(=O)Nc2ccccc2Cl)S(=O)(=O)c2ccccc2)c1 [SW202987],70.1,145,-8.3,20.6,-22,-21,–,–,–,–,–,–
COc1ccc(OC)c(N(C(C)C(=O)Nc2cccnc2)S(=O)(=O)c2ccccc2)c1 (stereo not drawn) [SW202991],-6.08,8.9,-15.6,2.09,-25,-7.5,–,–,–,–,–,–
COc1ccc(OC)c(N(CC(=O)Nc2cccnn2)S(=O)(=O)c2ccccc2)c1 [SW203680],10.4,33,11.7,46,14,25.2,–,–,–,–,–,–
COc1ccc(OC)c(N(CC(=O)Nc2cnccn2)S(=O)(=O)c2ccccc2)c1 [SW203681],90.4,72.4,121,152,18,122,–,–,–,–,–,–
CNC(=O)CN(c1cc(OC)ccc1OC)S(=O)(=O)c1ccccc1 [SW203682],-32.2,79.2,187,13.8,15.3,22.4,–,–,–,–,–,–
COc1ccc(OC)c(N(CC(=O)Nc2cccnc2)S(=O)(=O)c2cccc(C)c2)c1 [SW203684],81.2,52.5,170,119,50.7,74.9,–,–,–,–,–,–
COc1ccc(OC)c(N(CC(=O)N(C)c2cccnc2)S(=O)(=O)c2ccccc2)c1 [SW203686],-11,65.6,116,28.5,15.1,30.3,–,–,–,–,–,–
COc1ccc(OC)c(N(CC(=O)Nc2ccccc2)S(=O)(=O)c2ccccc2)c1 [SW203687],45.7,-41.6,1.75,56,28.2,47.5,–,–,–,–,–,–
COc1ccc(OC)c(CN(CC(=O)Nc2cccnc2)S(=O)(=O)c2ccccc2)c1 [SW203688],-28.1,-99.5,12.6,14.8,12.1,6.04,–,–,–,–,–,–
"CCCCC(=O)c1sc2nc(-c3cccs3)cc(-c3ccccc3)c2c1N [SW206976, 1-(3-amino-4-phenyl-6-(thiophen-2-yl)thieno[2,3-b]pyridin-2-yl)pentan-1-one]",–,–,–,–,–,–,16.8,49.5,42.4,20.6,11.8,17.5
"CCCNC(=O)c1sc2nc(-c3cccs3)cc(-c3ccccc3)c2c1N [SW206977, 3-amino-4-phenyl-N-propyl-6-(thiophen-2-yl)thieno[2,3-b]pyridine-2-carboxamide]",–,–,–,–,–,–,33,37.6,34.9,29.4,3.5,0.45
"CCOC(=O)c1sc2nc(-c3cccs3)cc(-c3ccccc3)c2c1N [SW206978, Ethyl 3-amino-4-phenyl-6-(thiophen-2-yl)thieno[2,3-b]pyridine-2-carboxylate]",–,–,–,–,–,–,38.8,35.8,31.4,26.2,7.51,8.02
COc1ccc(OC)c(N(CC(=O)N2CCCCCC2)S(=O)(=O)c2ccccc2)c1 [SW208000],122,138,42,70.5,33.5,36.6,–,–,–,–,–,–
COc1ccc(OC)c(N(CC(=O)N2CCCC2)S(=O)(=O)c2ccccc2)c1 [SW208001],-4.07,6.68,-0.61,1.87,19.6,23.3,–,–,–,–,–,–
COc1ccc(OC)c(N(CC(=O)N2CCCC2=O)S(=O)(=O)c2ccccc2)c1 [SW208002],-15.7,-16.5,-14.5,-14.6,-12.4,-21.8,–,–,–,–,–,–
COc1ccc(OC)c(N(CC(=O)N2CCc3ccccc32)S(=O)(=O)c2ccccc2)c1 [SW208003],117,75.9,37,45.6,13.3,-11.5,–,–,–,–,–,–
COc1ccc(OC)c(N(CC(=O)Nc2ccncc2F)S(=O)(=O)c2ccccc2)c1 [SW208004],147,177,62.2,118,43.7,76.1,–,–,–,–,–,–
COc1ccc(OC)c(N(CC(=O)Nc2ccnc(F)c2)S(=O)(=O)c2ccccc2)c1 [SW208005],103,61.2,63.9,53.9,42.4,19.8,–,–,–,–,–,–
COc1ccc(OC)c(N(CC(=O)N2CCCc3ccccc32)S(=O)(=O)c2ccccc2)c1 [SW208006],89.7,43.9,38.2,42.2,34.9,0.15,–,–,–,–,–,–
COc1ccc(S(=O)(=O)N(CC(=O)Nc2cccnc2)c2cc(C(F)(F)F)ccc2C(F)(F)F)cc1 [SW208008],31.9,39.6,-2.16,10,-5.96,-0.92,–,–,–,–,–,–
"CCCC[S+]([O-])c1sc2ncccc2c1N (stereo not drawn) [SW208064, 2-(butylsulfinyl)thieno[2,3-b]pyridin-3-amine]",–,–,–,–,–,–,126,96.2,126,96.2,82.6,50.1
"CCCC[S+]([O-])c1sc2nc(-c3ccccc3)nc(-c3ccccc3)c2c1N (stereo not drawn) [SW208065, 6-(butylsulfinyl)-2,4-diphenylthieno[2,3-d]pyrimidin-5-amine]",–,–,–,–,–,–,73.5,87.7,73.5,87.7,120,119
"CCCCSc1ncccc1N [SW208068, 2-(butylthio)pyridin-3-amine]",–,–,–,–,–,–,14.9,15,14.9,15,12.9,12.3
"CCCC[S+]([O-])c1ncccc1N (stereo not drawn) [SW208070, 2-(butylsulfinyl)pyridin-3-amine]",–,–,–,–,–,–,19.7,15.4,19.7,15.4,22.6,12.1
"CCCCS(=O)(=O)c1sc2nc(-c3cccs3)cc(-c3ccccc3)c2c1N [SW208078, 2-(butylsulfonyl)-4-phenyl-6-(thiophen-2-yl)thieno[2,3-b]pyridin-3-amine]",–,–,–,–,–,–,87.7,83.8,72.7,40,36.2,34.9
"CCCCC[S+]([O-])c1sc2nc(-c3cccs3)cc(-c3ccccc3)c2c1N (stereo not drawn) [SW208080, 2-(pentylsulfinyl)-4-phenyl-6-(thiophen-2-yl)thieno[2,3-b]pyridin-3-amine]",–,–,–,–,–,–,104,127,118,117,102,98.7
"CCCCCC[S+]([O-])c1sc2nc(-c3cccs3)cc(-c3ccccc3)c2c1N (stereo not drawn) [SW208081, 2-(hexylsulfinyl)-4-phenyl-6-(thiophen-2-yl)thieno[2,3-b]pyridin-3-amine]",–,–,–,–,–,–,90.5,105,64.5,95.1,37.8,63.6
